According to patent publication US12185723B2, “Herbicidally active 3-phenylisoxazoline-5-carboxamides of s-containing cyclopentenylcarboxylic esters” (Bayer Aktiengesellschaft, priority 2019, dated 2025):

Assays:
Assay type in all cases: in vivo
Setaria viridis = test: Post-emergence herbicidal action against SETVI; conditions: visual rating about 3 weeks after treatment
Experimental: (§1) Post-Emergence Herbicidal Action Against Harmful Plants and Crop Plant Compatibility Seeds of monocotyledonous and dicotyledonous weeds and crop plants are placed in sandy loam in plastic or wood-fibre pots, covered with soil and cultivated in a greenhouse under controlled growth conditions. 2 to 3 weeks after sowing, the test plants are treated at the one-leaf stage. The compounds of the invention, formulated in the form of wettable powders (WP) or as emulsion concentrates (EC), are then sprayed onto the green parts of the plants as aqueous suspension or emulsion with addition of 0.5% additive at a water application rate of 600 l/ha (converted). After the test plants have been kept in the greenhouse under optimum growth conditions for about 3 weeks, the activity of the preparations is rated visually in comparison to untreated controls. For example, 100% activity=the plants have died, 0% activity=like control plants. [table]

Veronica persica = test: Post-emergence herbicidal action against VERPE
Experimental: as §1

Avena fatua = test: Post-emergence herbicidal action against AVEFA; conditions: visual rating about 3 weeks after treatment
Experimental: as §1

Amaranthus retroflexus = test: Post-emergence herbicidal action against AMARE
Experimental: as §1

Stellaria media = test: Post-emergence herbicidal action against STEME
Experimental: as §1

Echinochloa crus-galli = test: Post-emergence herbicidal action against ECHCG; conditions: visual rating about 3 weeks after treatment
Experimental: as §1

Hordeum murinum = test: Post-emergence herbicidal action against HORMU
Experimental: as §1

Alopecurus myosuroides = test: Post-emergence herbicidal action against ALOMY; conditions: visual rating about 3 weeks after treatment
Experimental: as §1

Lolium rigidum = test: Post-emergence herbicidal action against LOLRI; conditions: visual rating about 3 weeks after treatment
Experimental: as §1

Polygonum convolvulus = test: Post-emergence herbicidal action against POLCO
Experimental: as §1

DIGSA = test: Post-emergence herbicidal action against DIGSA; conditions: visual rating about 3 weeks after treatment
Experimental: as §1, with “plants.” for “plants. [table]”

Viola tricolor = test: Post-emergence herbicidal action against VIOTR
Experimental: as §1

Pharbitis purpurea = test: Post-emergence herbicidal action against PHBPU
Experimental: as §1

Matricaria inodora = test: Post-emergence herbicidal action against MATIN; conditions: 20 g a.i./ha
Experimental: as §1

Abutilon theophrasti = test: Post-emergence herbicidal action against ABUTH; conditions: visual rating about 3 weeks after treatment
Experimental: as §1

[1] = 80 g a.i./ha, visual rating about 3 weeks after treatment

Row | SMILES | Herbicidal action against [%] SETVI (Setaria viridis; 20 g a.i./ha) [%] | Herbicidal action against [%] SETVI (Setaria viridis; 80 g a.i./ha) [%] | Herbicidal action against [%] VERPE (Veronica persica; 20 g a.i./ha) [%] | Herbicidal action against [%] VERPE (Veronica persica; 80 g a.i./ha) [%] | Herbicidal action against [%] AVEFA (Avena fatua; 20 g a.i./ha) [%] | Herbicidal action against [%] AVEFA (Avena fatua; 80 g a.i./ha) [%] | Herbicidal action against [%] STEME (Stellaria media; 20 g a.i./ha) [%] | Herbicidal action against [%] STEME (Stellaria media; 80 g a.i./ha) [%] | Herbicidal action against [%] ALOMY (Alopecurus myosuroides; 20 g a.i./ha) [%] | Herbicidal action against [%] ALOMY (Alopecurus myosuroides; 80 g a.i./ha) [%] | Herbicidal action against [%] LOLRI (Lolium rigidum; 20 g a.i./ha) [%] | Herbicidal action against [%] LOLRI (Lolium rigidum; 80 g a.i./ha) [%] | Herbicidal action against [%] POLCO (Polygonum convolvulus; 20 g a.i./ha) [%] | Herbicidal action against [%] DIGSA (DIGSA; 20 g a.i./ha) [%] | Herbicidal action against [%] DIGSA (DIGSA; 80 g a.i./ha) [%] | Herbicidal action against [%] AMARE (Amaranthus retroflexus; 20 g a.i./ha) [%] | Herbicidal action against [%] MATIN (Matricaria inodora) [%] | Herbicidal action against [%] ECHCG (Echinochloa crus-galli; 20 g a.i./ha) [%] | Herbicidal action against [%] ABUTH (Abutilon theophrasti; 20 g a.i./ha) [%] | Herbicidal action against [%] PHBPU (Pharbitis purpurea; 20 g a.i./ha) [%] | further results
1 | CSCCOC(=O)C1C=CC(NC(=O)C2(C)CC(c3cc(C#N)cc(C#N)c3)=NO2)C1 (mixture of isomers) [Example I-46] | 90 | 90 | 80 | 90 | 90 | 90 | 90 | 90 | 90 | 90 | 90 | 90 | 80 | 90 | 90 | – | – | – | – | – | Herbicidal action against [%] AMARE (Amaranthus retroflexus; [1]): 90%; Herbicidal action against [%] ECHCG (Echinochloa crus-galli; 80 g a.i./ha): 80%; Herbicidal action against [%] HORMU (Hordeum murinum; 20 g a.i./ha): 90%; Herbicidal action against [%] HORMU (Hordeum murinum; 80 g a.i./ha): 90%; Herbicidal action against [%] POLCO (Polygonum convolvulus; 80 g a.i./ha): 90%; Herbicidal action against [%] VIOTR (Viola tricolor; 20 g a.i./ha): 90%; Herbicidal action against [%] VIOTR (Viola tricolor; 80 g a.i./ha): 80%; Herbicidal action against [%] PHBPU (Pharbitis purpurea; 80 g a.i./ha): 80%
2 | CSCCOC(=O)C1C=CC(NC(=O)C2(C(F)(F)F)CC(c3cc(F)cc(C#N)c3)=NO2)C1 (mixture of isomers) [Example I-37] | 80 | 80 | 80 | 90 | 90 | 90 | 80 | 80 | 90 | 90 | 90 | 90 | 80 | 80 | 90 | 80 | – | – | – | – | Herbicidal action against [%] AMARE (Amaranthus retroflexus; [1]): 80%; Herbicidal action against [%] ECHCG (Echinochloa crus-galli; 80 g a.i./ha): 80%; Herbicidal action against [%] HORMU (Hordeum murinum; 20 g a.i./ha): 80%; Herbicidal action against [%] HORMU (Hordeum murinum; 80 g a.i./ha): 80%; Herbicidal action against [%] POLCO (Polygonum convolvulus; 80 g a.i./ha): 80%; Herbicidal action against [%] VIOTR (Viola tricolor; 20 g a.i./ha): 80%; Herbicidal action against [%] PHBPU (Pharbitis purpurea; 80 g a.i./ha): 80%
3 | COC1(C(=O)NC2C=CC(C(=O)OCCSC(=O)N(C)C)C2)CC(c2cc(F)cc(F)c2)=NO1 (stereo not drawn) [Example I-24] | 90 | – | 100 | – | 90 | – | – | – | 80 | – | 90 | – | 80 | 80 | – | 90 | 80 | 90 | 80 | 80 | –
4 | CSCCOC(=O)C1C=CC(NC(=O)C2(C)CC(c3cccc(C#N)c3)=NO2)C1 (stereo not drawn) [Example I-40] | – | – | 80 | 80 | – | – | 80 | 80 | – | 80 | 80 | 80 | – | – | 80 | – | – | 80 | 80 | – | Herbicidal action against [%] ECHCG (Echinochloa crus-galli; 80 g a.i./ha): 80%; Herbicidal action against [%] VIOTR (Viola tricolor; 20 g a.i./ha): 80%; Herbicidal action against [%] ABUTH (Abutilon theophrasti; 80 g a.i./ha): 80%
5 | CSCCOC(=O)C1C=CC(NC(=O)C2(C3CC3)CC(c3cc(F)cc(F)c3)=NO2)C1 (stereo not drawn) [Example I-30] | – | 80 | 80 | 90 | 90 | 90 | – | – | – | 90 | 90 | 90 | – | 80 | 90 | – | – | – | – | – | Herbicidal action against [%] AMARE (Amaranthus retroflexus; [1]): 80%; Herbicidal action against [%] HORMU (Hordeum murinum; 20 g a.i./ha): 90%; Herbicidal action against [%] HORMU (Hordeum murinum; 80 g a.i./ha): 90%; Herbicidal action against [%] POLCO (Polygonum convolvulus; 80 g a.i./ha): 80%; Herbicidal action against [%] VIOTR (Viola tricolor; 80 g a.i./ha): 80%
6 | C=CC1(C(=O)NC2C=CC(C(=O)OCCSC)C2)CC(c2ccccc2)=NO1 (mixture of isomers) [Example I-48] | 80 | 80 | 80 | 90 | – | 90 | 90 | 90 | – | 100 | 80 | 90 | – | 80 | 90 | – | – | – | – | – | Herbicidal action against [%] ECHCG (Echinochloa crus-galli; 80 g a.i./ha): 80%; Herbicidal action against [%] HORMU (Hordeum murinum; 80 g a.i./ha): 80%; Herbicidal action against [%] VIOTR (Viola tricolor; 20 g a.i./ha): 90%; Herbicidal action against [%] PHBPU (Pharbitis purpurea; 80 g a.i./ha): 80%
7 | COC1(C(=O)NC2C=CC(C(=O)OCCSC(=O)C(C)C)C2)CC(c2cc(F)cc(F)c2)=NO1 (stereo not drawn) [Example I-23] | 80 | – | 90 | – | 90 | – | – | – | 90 | – | 90 | – | 80 | 90 | – | 80 | 80 | 90 | 80 | 80 | –
8 | CC(C)CSCCOC(=O)C1C=CC(NC(=O)C2(C)CC(c3cc(F)cc(F)c3)=NO2)C1 (stereo not drawn) [Example I-08] | 90 | – | 80 | – | 90 | – | – | – | 100 | – | 90 | – | 90 | 90 | – | 90 | 80 | 90 | 90 | 90 | –
9 | COC1(C(=O)NC2C=CC(C(=O)OCCSC)C2)CC(c2cc(F)cc(F)c2)=NO1 (stereo not drawn) [Example I-19] | 90 | – | 90 | – | 90 | – | – | – | 80 | – | 90 | – | 80 | 90 | – | 80 | 80 | 90 | 80 | 80 | –
10 | CCSCCOC(=O)C1C=CC(NC(=O)C2(C)CC(c3cc(F)cc(F)c3)=NO2)C1 (stereo not drawn) [Example I-02] | 90 | – | 90 | – | 90 | – | – | – | 100 | – | 90 | – | 90 | 90 | – | 90 | 80 | 90 | 90 | 80 | –
11 | COC(=O)CSCCOC(=O)C1C=CC(NC(=O)C2(C)CC(c3cc(F)cc(F)c3)=NO2)C1 (stereo not drawn) [Example I-64] | 80 | – | 80 | – | 90 | – | – | – | 90 | – | 90 | – | 80 | 90 | – | 90 | 90 | 90 | 80 | 80 | –
